Measured values as given in ChEMBL document CHEMBL1132542, “Vasorelaxation by new hybrid compounds containing dihydropyridine and pinacidil-like moieties” (J Med Chem, 1999).

Columns and labels:
Rattus norvegicus [1] = species on record: Rattus norvegicus; assay: Vasorelaxation activity in rat mesenteric arteries after contractile stimulus(K+ depolarization).
Rattus norvegicus [2] = species on record: Rattus norvegicus; assay: Vasorelaxation activity in rat mesenteric arteries after contractile stimulus(K+ depolarization)
Rattus norvegicus [3] = species on record: Rattus norvegicus; assay: Vasorelaxation activity in rat mesenteric arteries after contractile stimulus (norepinephrine)
[4] = target: T1, Voltage-dependent L-type calcium channel subunit alpha-1C (Homo sapiens, UniProt Q13936); assay: Inhibition of VGCC alpha-1C-b expressed in CHO cells -80 mV holding potential, peak Ba2+ current, at 10e-5 M; type: functional, cell-based; settings: hamster
T1 sequence (Q13936 whole entry): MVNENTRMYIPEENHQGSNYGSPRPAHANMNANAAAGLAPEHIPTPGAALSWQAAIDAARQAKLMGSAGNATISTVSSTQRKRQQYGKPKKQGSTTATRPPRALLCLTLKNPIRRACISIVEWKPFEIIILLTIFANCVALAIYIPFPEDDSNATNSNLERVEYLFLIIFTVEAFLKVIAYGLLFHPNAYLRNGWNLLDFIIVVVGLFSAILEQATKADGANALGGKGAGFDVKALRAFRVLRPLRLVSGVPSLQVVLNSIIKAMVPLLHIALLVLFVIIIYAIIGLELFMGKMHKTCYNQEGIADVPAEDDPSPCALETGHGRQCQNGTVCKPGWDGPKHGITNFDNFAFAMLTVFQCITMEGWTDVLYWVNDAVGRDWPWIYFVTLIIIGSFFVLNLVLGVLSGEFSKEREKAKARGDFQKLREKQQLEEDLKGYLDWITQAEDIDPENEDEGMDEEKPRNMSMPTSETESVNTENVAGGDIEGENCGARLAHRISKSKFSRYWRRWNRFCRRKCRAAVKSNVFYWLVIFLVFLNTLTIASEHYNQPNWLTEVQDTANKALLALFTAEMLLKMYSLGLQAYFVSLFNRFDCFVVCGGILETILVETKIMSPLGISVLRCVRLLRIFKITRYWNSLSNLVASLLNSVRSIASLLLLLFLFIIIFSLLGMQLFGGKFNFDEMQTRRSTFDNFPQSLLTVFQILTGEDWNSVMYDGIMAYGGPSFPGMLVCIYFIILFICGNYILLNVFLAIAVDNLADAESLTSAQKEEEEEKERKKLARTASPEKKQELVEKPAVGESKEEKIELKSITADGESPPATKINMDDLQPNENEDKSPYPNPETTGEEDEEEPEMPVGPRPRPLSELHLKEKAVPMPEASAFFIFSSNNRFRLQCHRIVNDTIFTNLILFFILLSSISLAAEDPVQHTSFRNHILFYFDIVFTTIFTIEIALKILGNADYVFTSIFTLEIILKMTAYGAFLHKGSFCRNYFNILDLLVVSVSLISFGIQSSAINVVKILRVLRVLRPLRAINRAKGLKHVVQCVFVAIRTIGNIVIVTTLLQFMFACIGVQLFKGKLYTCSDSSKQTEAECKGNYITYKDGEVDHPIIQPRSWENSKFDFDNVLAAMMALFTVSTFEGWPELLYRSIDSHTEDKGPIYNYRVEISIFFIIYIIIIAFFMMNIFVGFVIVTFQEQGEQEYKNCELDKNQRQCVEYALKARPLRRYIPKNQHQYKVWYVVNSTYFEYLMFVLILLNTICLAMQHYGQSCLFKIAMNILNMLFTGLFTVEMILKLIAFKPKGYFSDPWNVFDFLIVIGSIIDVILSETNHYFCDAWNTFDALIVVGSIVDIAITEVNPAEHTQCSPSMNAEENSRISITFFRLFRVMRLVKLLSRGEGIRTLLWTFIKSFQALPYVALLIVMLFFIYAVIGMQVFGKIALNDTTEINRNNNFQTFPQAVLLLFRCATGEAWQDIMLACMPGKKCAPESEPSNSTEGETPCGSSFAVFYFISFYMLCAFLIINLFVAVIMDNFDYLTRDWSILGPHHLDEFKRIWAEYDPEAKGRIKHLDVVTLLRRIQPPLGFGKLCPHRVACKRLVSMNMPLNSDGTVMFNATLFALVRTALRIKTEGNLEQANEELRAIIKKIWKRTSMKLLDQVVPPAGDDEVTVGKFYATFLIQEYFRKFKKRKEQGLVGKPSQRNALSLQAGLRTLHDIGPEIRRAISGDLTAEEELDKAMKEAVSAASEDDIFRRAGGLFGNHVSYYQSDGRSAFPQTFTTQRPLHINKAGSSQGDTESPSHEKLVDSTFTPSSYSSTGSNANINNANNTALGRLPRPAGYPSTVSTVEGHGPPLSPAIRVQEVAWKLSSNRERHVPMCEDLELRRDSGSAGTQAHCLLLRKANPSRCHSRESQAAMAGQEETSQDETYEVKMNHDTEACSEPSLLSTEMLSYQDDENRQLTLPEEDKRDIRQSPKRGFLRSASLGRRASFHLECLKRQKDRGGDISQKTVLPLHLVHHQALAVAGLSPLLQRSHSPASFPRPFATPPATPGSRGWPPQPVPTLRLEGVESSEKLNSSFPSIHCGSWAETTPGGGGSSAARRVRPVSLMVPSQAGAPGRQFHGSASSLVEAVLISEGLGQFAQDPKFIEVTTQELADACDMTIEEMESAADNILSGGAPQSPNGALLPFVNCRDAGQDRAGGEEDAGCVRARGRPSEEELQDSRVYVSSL

[5] = target: T1, Voltage-dependent L-type calcium channel subunit alpha-1C; assay: Inhibition of VGCC alpha-1C-b expressed in CHO cells -80 mV holding potential, peak Ba2+ current, at 10e-6 M; type: functional, cell-based
[6] = target: T1, Voltage-dependent L-type calcium channel subunit alpha-1C; assay: Inhibition of VGCC alpha-1C-b expressed in CHO cells -30 mV holding potential, peak Ba2+ current, at 10e-5 M; type: functional, cell-based
[7] = Vasorelaxation in rat mesenteric arteries after contractile stimulus (norepinephrine+glibenclamide); type: functional
[8] = Inhibition of [3H]P1075 binding to ATP-sensitive potassium channels of rat cardiac membranes; type: cell membranes, Membrane
[9] = target: T1, Voltage-dependent L-type calcium channel subunit alpha-1C; assay: Inhibition of VGCC alpha-1C-b expressed in CHO cells -30 mV holding potential, peak Ba2+ current, at 10e-6 M; type: functional, cell-based
[10] = target: T1, Voltage-dependent L-type calcium channel subunit alpha-1C; assay: Inhibition of VGCC alpha-1C-b expressed in CHO cells -30 mV holding potential, peak Ba2+ current, at 10e-4 M; type: functional, cell-based
[11] = target: T1, Voltage-dependent L-type calcium channel subunit alpha-1C; assay: Inhibition of VGCC alpha-1C-b expressed in CHO cells -80 mV holding potential, peak Ba2+ current, at 10e-4 M; type: functional, cell-based

| EC50 (Rattus norvegicus [1]) | EC50 (Rattus norvegicus [2]) | EC50 (Rattus norvegicus [3]) | Peak current [4] | Peak current [5] | Peak current [6] | Log EC50 [7] | pIC50 [8] | Peak current [9] | Peak current [10] | Peak current [11] | SMILES |
| --- | --- | --- | --- | --- | --- | --- | --- | --- | --- | --- | --- |
| 2340 nM | – | – | – | – | – | – | – | – | – | – | CO/C(O)=C1\C(C)=NC(C)=C(C#N)C1c1cc(N/C(=N/C(C)C(C)(C)C)NC#N)ccc1OC(F)F (stereo not drawn) |
| – | 955 nM | – | – | – | – | – | – | – | – | – | CCOC(=O)C1=C(C)N=C(C)/C(=C(/O)OCC)C1c1cc(N/C(=N/C(C)C(C)(C)C)NC#N)ccc1OC(F)F (stereo not drawn) |
| – | 372 nM | 200 nM | 38.2% | 60.4% | 2.5% | -6.2 | 6.2 | 9.2% | – | – | COC(=O)C1=C(C)N=C(C)/C(=C(/O)OC)C1c1cc(N/C(=N/C(C)C(C)(C)C)NC#N)ccc1OC(F)F (stereo not drawn) |
| – | 7410 nM | 288 nM | 58.2% | – | 10.8% | -6.12 | 8.7 | – | 2.4% | 26.7% | CC(/N=C(\NC#N)Nc1ccc(OC(F)F)cc1)C(C)(C)C (stereo not drawn) |
